# According to ChEMBL document CHEMBL3774340, “Structure-Guided Design of IACS-9571, a Selective High-Affinity Dual TRIM24-BRPF1 Bromodomain Inhibitor” (J Med Chem, 2016):
# Test system: not listed separately
# Assay: Clearance in CD1 mouse at 1 mg/kg, iv
# Assay type: ADME, organism-based
# Settings: in vivo
row,clearance [mL/min/kg],SMILES
1,43,CCCOc1cc(OCCCCN(C)C)cc(Oc2cc3c(cc2NS(=O)(=O)c2ccc(OC)c(OC)c2)n(C)c(=O)n3C)c1

# Test system: not listed separately
# Assay: Terminal half life in CD1 mouse at 1 mg/kg, iv
# Assay type: ADME, organism-based
# Settings: in vivo, read-out: beta t1/2 (converted)
row,half-life [min],SMILES
1,42,CCCOc1cc(OCCCCN(C)C)cc(Oc2cc3c(cc2NS(=O)(=O)c2ccc(OC)c(OC)c2)n(C)c(=O)n3C)c1

# Test system: not listed separately
# Assay: Oral bioavailability in CD1 mouse at 10 mg/kg
# Assay type: ADME, organism-based
# Settings: in vivo
row,bioavailability [%],SMILES
1,29,CCCOc1cc(OCCCCN(C)C)cc(Oc2cc3c(cc2NS(=O)(=O)c2ccc(OC)c(OC)c2)n(C)c(=O)n3C)c1

# Biological target: T1, Transcription intermediary factor 1-alpha (Homo sapiens, UniProt O15164)
# T1 sequence (O15164 whole entry): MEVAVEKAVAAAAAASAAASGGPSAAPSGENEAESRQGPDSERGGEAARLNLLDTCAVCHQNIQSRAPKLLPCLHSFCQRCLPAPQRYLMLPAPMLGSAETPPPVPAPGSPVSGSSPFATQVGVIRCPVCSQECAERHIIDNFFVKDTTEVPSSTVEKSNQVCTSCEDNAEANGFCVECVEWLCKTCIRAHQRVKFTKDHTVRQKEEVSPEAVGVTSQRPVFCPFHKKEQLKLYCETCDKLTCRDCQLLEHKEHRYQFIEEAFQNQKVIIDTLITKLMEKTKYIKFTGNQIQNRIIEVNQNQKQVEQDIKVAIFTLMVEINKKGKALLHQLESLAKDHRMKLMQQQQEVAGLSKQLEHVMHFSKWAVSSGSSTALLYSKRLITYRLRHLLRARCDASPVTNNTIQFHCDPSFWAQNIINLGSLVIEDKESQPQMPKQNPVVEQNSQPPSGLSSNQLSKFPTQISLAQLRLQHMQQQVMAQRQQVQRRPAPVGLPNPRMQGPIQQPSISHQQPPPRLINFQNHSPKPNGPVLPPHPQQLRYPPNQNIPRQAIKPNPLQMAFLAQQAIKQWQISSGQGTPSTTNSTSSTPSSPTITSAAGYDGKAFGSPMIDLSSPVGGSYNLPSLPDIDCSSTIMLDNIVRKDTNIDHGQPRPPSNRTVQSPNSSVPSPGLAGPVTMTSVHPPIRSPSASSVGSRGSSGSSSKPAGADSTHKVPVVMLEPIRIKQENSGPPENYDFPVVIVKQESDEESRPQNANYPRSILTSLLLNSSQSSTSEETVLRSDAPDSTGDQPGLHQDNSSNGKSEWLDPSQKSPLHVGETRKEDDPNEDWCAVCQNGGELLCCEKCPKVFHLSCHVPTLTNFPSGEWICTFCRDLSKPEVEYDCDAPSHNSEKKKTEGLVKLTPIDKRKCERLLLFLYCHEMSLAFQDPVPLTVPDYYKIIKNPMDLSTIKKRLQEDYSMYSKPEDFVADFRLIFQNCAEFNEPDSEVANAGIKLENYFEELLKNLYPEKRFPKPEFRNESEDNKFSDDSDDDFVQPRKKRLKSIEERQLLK
# Assay: Inhibition of recombinant human His-tagged TRIM24-PHD/bromodomain expressed in Escherichia coli strains BL21 (DE3) cells using biotinylated H3K23ac (1 to 33 residues) peptide after 1 hr by AlphaScreen assay
# Settings: not given
row,IC50 [nM],SMILES
1,57,Cc1nc(S(=O)(=O)Nc2cc3c(cc2Oc2cccc(OCC(C)C)c2)n(C)c(=O)n3C)cn1C
2,43,CCCOc1cccc(Oc2cc3c(cc2NS(=O)(=O)c2ccc(OC)c(OC)c2)n(C)c(=O)n3C)c1
3,270,COc1ccc(S(=O)(=O)Nc2cc3c(cc2Oc2cccc(OCCCCN(C)C)c2)n(C)c(=O)n3C)cc1OC
4,2400,CC(C)COc1cccc(Oc2ccc3c(c2)n(C)c(=O)n3C)c1
5,100,Cn1cnc(S(=O)(=O)Nc2cc3c(cc2Oc2cccc(OCC4CCOC4)c2)n(C)c(=O)n3C)c1 (configuration not stated)
6,3700,CC(C)COc1ccc(S(=O)(=O)Nc2ccc3c(c2)CCC(=O)N3C)cc1
7,1700,Cn1c(=O)n(C)c2cc(NS(=O)(=O)c3ccc(C4CCCCC4)cc3)ccc21
8,60,CCCOc1cc(OCCCCCCO)cc(Oc2cc3c(cc2NS(=O)(=O)c2cn(C)cn2)n(C)c(=O)n3C)c1
9,11,CCCOc1cc(OCCCCCN)cc(Oc2cc3c(cc2NS(=O)(=O)c2cn(C)cn2)n(C)c(=O)n3C)c1
10,10000,COc1cc2c(cc1NS(=O)(=O)c1cccc(C#N)c1)n(C)c(=O)n2C
11,270,Cc1nc(S(=O)(=O)Nc2cc3c(cc2Oc2cccc(OCc4ccccc4)c2)n(C)c(=O)n3C)cn1C
12,23000,Cn1c(=O)n(C)c2cc(NS(=O)(=O)c3ccccc3)ccc21
13,110,CC(C)COc1cccc(Oc2cc3c(cc2NS(=O)(=O)C2CC2)n(C)c(=O)n3C)c1
14,10,CCCOc1cc(OCCCCCCN)cc(Oc2cc3c(cc2NS(=O)(=O)c2cn(C)cn2)n(C)c(=O)n3C)c1
15,13,CCCOc1cc(OCCCN)cc(Oc2cc3c(cc2NS(=O)(=O)c2ccc(OC)c(OC)c2)n(C)c(=O)n3C)c1
16,8.3,CCCOc1cc(OCCCCN)cc(Oc2cc3c(cc2NS(=O)(=O)c2ccc(OC)c(OC)c2)n(C)c(=O)n3C)c1
17,140,COc1ccc(S(=O)(=O)Nc2cc3c(cc2Oc2cccc(OCc4ccccc4)c2)n(C)c(=O)n3C)cc1OC

row,IC50 [nM],SMILES
1,130,COCCCOc1cccc(Oc2cc3c(cc2NS(=O)(=O)c2cn(C)c(C)n2)n(C)c(=O)n3C)c1
2,17000,CSc1ccc(S(=O)(=O)Nc2ccc3c(c2)CC(=O)N3C)cc1
3,2500,COc1ccc(S(=O)(=O)Nc2ccc3c(c2)CCC(=O)N3C)c(OC)c1
4,180,CCOc1cccc(Oc2cc3c(cc2NS(=O)(=O)c2cn(C)c(C)n2)n(C)c(=O)n3C)c1
5,4900,CSc1ccc(S(=O)(=O)Nc2ccc3c(c2)n(C)c(=O)n3C)cc1
6,160,CCCCOc1cccc(Oc2cc3c(cc2NS(=O)(=O)c2cn(C)c(C)n2)n(C)c(=O)n3C)c1
7,4800,CSc1ccc(S(=O)(=O)Nc2ccc3c(c2)CCC(=O)N3C)cc1
8,4000,CC(C)COc1ccc(S(=O)(=O)Nc2ccc3c(c2)n(C)c(=O)n3C)cc1
9,2800,CN1C(=O)CCc2cc(NS(=O)(=O)c3ccc(C4CCCCC4)cc3)ccc21
10,36000,COc1cc2c(cc1NS(=O)(=O)c1ccccc1)CCC(=O)N2C
11,14000,CSc1ccc(S(=O)(=O)Nc2ccc3c(c2)N(C)C(=O)CC3)cc1
12,1500,COc1ccc(Oc2cc3c(cc2NS(=O)(=O)c2ccccc2)n(C)c(=O)n3C)cc1
13,2000,Cn1cnc(S(=O)(=O)Nc2cc3c(cc2Oc2ccc(OCc4ccccc4)cc2)n(C)c(=O)n3C)c1
14,7.9,CCCOc1cc(OCCCCN)cc(Oc2cc3c(cc2NS(=O)(=O)c2cn(C)cn2)n(C)c(=O)n3C)c1
15,160,CCCOc1cc(OCCCCCCNC(=O)OC(C)(C)C)cc(Oc2cc3c(cc2NS(=O)(=O)c2cn(C)cn2)n(C)c(=O)n3C)c1
16,53,CCCOc1cccc(Oc2cc3c(cc2NS(=O)(=O)c2cn(C)c(C)n2)n(C)c(=O)n3C)c1
17,13,CCCOc1cc(OCCCCCCN)cc(Oc2cc3c(cc2NS(=O)(=O)c2ccc(OC)c(OC)c2)n(C)c(=O)n3C)c1

row,SMILES,IC50 [nM]
1,Cc1nc(-c2ccc3c(c2)CC(=O)N3C)cs1,8500
2,COc1ccc(S(=O)(=O)Nc2ccc3c(c2)n(C)c(=O)n3C)cc1,9300

# Biological target: T1, Transcription intermediary factor 1-alpha
# Assay: Inhibition of Flag-tagged TRIM24-PHD/bromodomain (unknown origin) expressed in human HeLa cells for 2 hrs by AlphaLisa assay
# Assay type: cell-based
# Settings: not given
row,EC50 [nM],SMILES
1,830,CCCOc1cccc(Oc2cc3c(cc2NS(=O)(=O)c2ccc(OC)c(OC)c2)n(C)c(=O)n3C)c1
2,3200,COc1ccc(S(=O)(=O)Nc2cc3c(cc2Oc2cccc(OCCCCN(C)C)c2)n(C)c(=O)n3C)cc1OC
3,> 36000,CC(C)COc1cccc(Oc2ccc3c(c2)n(C)c(=O)n3C)c1
4,1900,Cn1cnc(S(=O)(=O)Nc2cc3c(cc2Oc2cccc(OCC4CCOC4)c2)n(C)c(=O)n3C)c1 (configuration not stated)
5,1800,CCCOc1cc(OCCCCCCO)cc(Oc2cc3c(cc2NS(=O)(=O)c2cn(C)cn2)n(C)c(=O)n3C)c1
6,110,CCCOc1cc(OCCCCCN)cc(Oc2cc3c(cc2NS(=O)(=O)c2cn(C)cn2)n(C)c(=O)n3C)c1
7,4900,Cc1nc(S(=O)(=O)Nc2cc3c(cc2Oc2cccc(OCc4ccccc4)c2)n(C)c(=O)n3C)cn1C
8,5000,CC(C)COc1cccc(Oc2cc3c(cc2NS(=O)(=O)C2CC2)n(C)c(=O)n3C)c1
9,170,CCCOc1cc(OCCCCCCN)cc(Oc2cc3c(cc2NS(=O)(=O)c2cn(C)cn2)n(C)c(=O)n3C)c1
10,120,CCCOc1cc(OCCCN)cc(Oc2cc3c(cc2NS(=O)(=O)c2ccc(OC)c(OC)c2)n(C)c(=O)n3C)c1
11,59,CCCOc1cc(OCCCCN)cc(Oc2cc3c(cc2NS(=O)(=O)c2ccc(OC)c(OC)c2)n(C)c(=O)n3C)c1
12,3900,COc1ccc(S(=O)(=O)Nc2cc3c(cc2Oc2cccc(OCc4ccccc4)c2)n(C)c(=O)n3C)cc1OC
13,2700,COCCCOc1cccc(Oc2cc3c(cc2NS(=O)(=O)c2cn(C)c(C)n2)n(C)c(=O)n3C)c1
14,2300,CCOc1cccc(Oc2cc3c(cc2NS(=O)(=O)c2cn(C)c(C)n2)n(C)c(=O)n3C)c1
15,3000,CCCCOc1cccc(Oc2cc3c(cc2NS(=O)(=O)c2cn(C)c(C)n2)n(C)c(=O)n3C)c1
16,> 33000,Cn1cnc(S(=O)(=O)Nc2cc3c(cc2Oc2ccc(OCc4ccccc4)cc2)n(C)c(=O)n3C)c1
17,120,CCCOc1cc(OCCCCN)cc(Oc2cc3c(cc2NS(=O)(=O)c2cn(C)cn2)n(C)c(=O)n3C)c1
18,5500,CCCOc1cc(OCCCCCCNC(=O)OC(C)(C)C)cc(Oc2cc3c(cc2NS(=O)(=O)c2cn(C)cn2)n(C)c(=O)n3C)c1
19,950,CCCOc1cccc(Oc2cc3c(cc2NS(=O)(=O)c2cn(C)c(C)n2)n(C)c(=O)n3C)c1
20,170,CCCOc1cc(OCCCCCCN)cc(Oc2cc3c(cc2NS(=O)(=O)c2ccc(OC)c(OC)c2)n(C)c(=O)n3C)c1

# Test system: not listed separately
# Assay: Kinetic solubility of compound in phosphate buffer at pH 7
# Settings: not given
row,solubility kinetic [µM],SMILES
1,87,Cc1nc(S(=O)(=O)Nc2cc3c(cc2Oc2cccc(OCC(C)C)c2)n(C)c(=O)n3C)cn1C
2,1.1,CCCOc1cccc(Oc2cc3c(cc2NS(=O)(=O)c2ccc(OC)c(OC)c2)n(C)c(=O)n3C)c1
3,66,COc1ccc(S(=O)(=O)Nc2cc3c(cc2Oc2cccc(OCCCCN(C)C)c2)n(C)c(=O)n3C)cc1OC
4,2.6,CC(C)COc1cccc(Oc2ccc3c(c2)n(C)c(=O)n3C)c1
5,77,Cn1cnc(S(=O)(=O)Nc2cc3c(cc2Oc2cccc(OCC4CCOC4)c2)n(C)c(=O)n3C)c1 (configuration not stated)
6,76,CCCOc1cc(OCCCCN(C)C)cc(Oc2cc3c(cc2NS(=O)(=O)c2ccc(OC)c(OC)c2)n(C)c(=O)n3C)c1
7,0.78,CC(C)COc1cccc(Oc2cc3c(cc2NS(=O)(=O)C2CC2)n(C)c(=O)n3C)c1
8,42,CCCOc1cc(OCCCCN)cc(Oc2cc3c(cc2NS(=O)(=O)c2ccc(OC)c(OC)c2)n(C)c(=O)n3C)c1
9,0.6,COc1ccc(S(=O)(=O)Nc2cc3c(cc2Oc2cccc(OCc4ccccc4)c2)n(C)c(=O)n3C)cc1OC
10,100,COCCCOc1cccc(Oc2cc3c(cc2NS(=O)(=O)c2cn(C)c(C)n2)n(C)c(=O)n3C)c1
11,74,CCOc1cccc(Oc2cc3c(cc2NS(=O)(=O)c2cn(C)c(C)n2)n(C)c(=O)n3C)c1
12,62,CCCOc1cccc(Oc2cc3c(cc2NS(=O)(=O)c2cn(C)c(C)n2)n(C)c(=O)n3C)c1

# Test system: not listed separately
# Assay: Apparent permeability from apical to basolateral side in human Caco2 cells
# Settings: Caco-2
row,Papp A→B [×10⁻⁶ cm/s],SMILES
1,21,COc1ccc(S(=O)(=O)Nc2cc3c(cc2Oc2cccc(OCc4ccccc4)c2)n(C)c(=O)n3C)cc1OC
